Results published in US20040249122A1, “Cationic, amphipathic beta-sheet peptides and uses thereof” (priority 2003, published 2004).
In brackets after ≈: the same amount, converted by molar mass. Entries after “also recorded” stand apart in the source; their conditions may differ. Where a SMILES comes first, the peptide text is derived from it.

Tests used:
[1] = test system: microorganisms; conditions: literature (52, 54); E. coli, S. aureus, P. aeruginosa for FKVKFKVKVK; cited from earlier work
[2] = test system: Escherichia coli (ATCC 25922); type: cell-based
[3] = test system: Staphylococcus aureus (ATCC 29213); type: cell-based
[4] = test system: Pseudomonas aeruginosa (ATCC 27853); type: cell-based
[5] = test system: human erythrocytes; assay: Hemolysis of human erythrocytes; type: cell-based; conditions: 500 μg/mL peptide, 5% human erythrocytes, 37° C., 30 min
Procedure: Antimicrobial and Hemolytic Assays. Antimicrobial susceptibility testing against Staphylococcus aureus (ATCC 29213), Escherichia coli (ATCC 25922), and Pseudomonas aeruginosa (ATCC 27853) was performed using a modification of the National Committee for Clinical Laboratory Standards microdilution broth assay (22). Mueller-Hinton broth (BBL) was used for diluting the peptide stock solution and for diluting the bacterial inoculum. The inoculum was prepared from mid-logarithmic phase cultures. […] The final concentration of peptide solution ranged-from 0.25 to 256 μg/mL in two-fold dilutions. The final concentration of bacteria in the wells was 5×10^5 CFU/mL. Peptides were tested in duplicate. In addition to the test peptide, three standard peptides and a non-treated growth control were included to validate the assay. The microtiter plates were incubated overnight at 37° C. and the absorbance was measured at 600 nm. […] After incubation at 37° C. for 30 min, the suspension was centrifuged at 10,000×g for 10 min and the absorbance at 400 nm was measured.

[6] = Peptide-induced leakage from calcein-loaded LUV
[7] = test system: Candida albicans (ATCC 14053); conditions: Table 2
Procedure: Antimicrobial and Hemolytic Assays. Antimicrobial susceptibility testing against Staphylococcus aureus (ATCC 29213), Escherichia coli (ATCC 25922), and Pseudomonas aeruginosa (ATCC 27853) was performed using a modification of the National Committee for Clinical Laboratory Standards microdilution broth assay (22). Mueller-Hinton broth (BBL) was used for diluting the peptide stock solution and for diluting the bacterial inoculum. The inoculum was prepared from mid-logarithmic phase cultures. Microtiter plate wells received aliquots-of 100 μL each of the inoculum and peptide dilution. The final concentration of peptide solution ranged-from 0.25 to 256 μg/mL in two-fold dilutions. The final concentration of bacteria in the wells was 5×10^5 CFU/mL. Peptides were tested in duplicate. In addition to the test peptide, three standard peptides and a non-treated growth control were included to validate the assay. The microtiter plates were incubated overnight at 37° C. and the absorbance was measured at 600 nm. […] After incubation at 37° C. for 30 min, the suspension was centrifuged at 10,000×g for 10 min and the absorbance at 400 nm was measured. Complete hemolysis was determined by adding 0.2% Triton X-100 in place of the peptide.
Antimicrobial susceptibility testing against Escherichia coli (ATCC 25922), Staphylococcus aureus (ATCC 29213), Pseudomonas aeruginosa (ATCC 27853), and Candida albicans (ATCC 14053) is performed using a modification of the National Committee for Clinical Laboratory Standards microdilution broth assay. Mueller-Hinton broth (BBL) is used for diluting the peptide stock solution and for diluting the bacterial inoculum. The inoculum is prepared from midlogarithmic phase cultures at an approximate concentration of 10^6 CFU/mL. Microtiter plate wells receive aliquots of 0.1 mL each of the inoculum and peptide dilution. The final concentration of the peptide solution ranges from 0.25 to 256 μg/mL in 2-fold dilutions. The microtiter plates are incubated overnight at 37° C.

| Compound | antimicrobial or hemolytic activity as reported in the literature [1] | Minimum Inhibitory Concentration, E. coli ([2]; Table 2, overnight at 37° C.) | MIC E. coli ([2]; Table 4) | Minimum Inhibitory Concentration, S. aureus ([3]; Table 2, overnight at 37° C.) | MIC Staph. aureus ([3]; Table 4) | Minimum Inhibitory Concentration, P. aeruginosa ([4]; Table 2, overnight at 37° C.) | MIC Pseud. aerug ([4]; Table 4) | % Hemolysis (500 μg/mL) [5] | calcein leakage from LUV (in words) ([6]; 4:1 POPE/POPG LUV) | calcein leakage from LUV (in words) ([6]; POPC (PC) LUV) | calcein leakage from LUV (in words) ([6]; POPC/POPG LUV, all ratios (1:1 to 4:1)) | Minimum Inhibitory Concentration, C. albicans [7] |
| --- | --- | --- | --- | --- | --- | --- | --- | --- | --- | --- | --- | --- |
| FKVKFKVKVK (artificial mutant) | able to inhibit the growth |  |  |  |  |  |  |  |  |  |  |  |
| CC[C@H](C)[C@H](NC(=O)[C@H](CCCCN)NC(=O)[C@H](C)NC(=O)CNC(=O)[C@@H](NC(=O)[C@H](CCCCN)NC(=O)[C@@H](NC(=O)[C@H](CCCCN)NC(=O)[C@H](C)NC(=O)CNC(=O)[C@@H](NC(=O)[C@H](CCCCN)NC(=O)[C@@H](NC(=O)[C@H](CCCCN)NC(=O)[C@H](C)NC(=O)CNC(=O)[C@@H](NC(=O)[C@@H](N)CCCCN)[C@@H](C)CC)[C@@H](C)CC)[C@@H](C)CC)[C@@H](C)CC)[C@@H](C)CC)C(N)=O [(KIGAKI)3-NH2, K I G A K I K I G A K I K I G A K I -NH2] (H-KIGAKIKIGAKIKIGAKI-NH2) |  | 8 µg/mL | 8 µg/mL (≈ 4.33 µM) | 16 µg/mL | 8 µg/mL (≈ 4.33 µM) | 32 µg/mL | 32 µg/mL (≈ 17.3 µM) | 3% | most potent | not very effective; also recorded: low lytic activity | least potent | 64 µg/mL |
